We go through two molecules from patent publication US20210205404A1, “PHARMACEUTICAL COMPOSITION OF KOR RECEPTOR AGONIST” (JIANGSU HENGRUI MEDICINE CO., LTD., priority 2018, published 2021).

How the values of series [1] were obtained:
High performance liquid chromatography (HPLC) was determined on an Agilent 1200DAD high pressure liquid chromatograph (Sunfire C18 150×4.6 mm column) and Waters 2695-2996 high pressure liquid chromatograph (Gimini C18 150×4.6 mm column).
The study period was 20 days.

A short description of series [2]: Solubility of the active ingredient (statement). The format is physicochemical. The settings on record: free compound, background statement.

Read-outs that look alike come from different tables or passages of the source. Square brackets hold non-standard residues; d marks the D form. Peptide text beside a SMILES is read from it. * marks the point of attachment. Gly(N-(2R-Ph-propyl)) = C[C@@H](CNCC(=O)O)c1ccccc1; Piperidin1yl(4-NH2,4-COOH) = NC1(C(=O)O)CCN(*)CC1

As to `CC(C)C[C@@H](NC(=O)[C@@H](Cc1ccccc1)NC(=O)CNC[C@H](C)c1ccccc1)C(=O)N[C@H](CCCCN)C(=O)N1CCC(N)(C(=O)O)CC1.Cl.Cl.Cl` [Hydrochloride (1:3), 4-Amino-N—[N^2—[N—[N—[N-((R)-2-phenylpropyl)glycyl]-D-phenylalanyl]-D-leucyl]-D-lysyl]piperidine-4-carboxylic acid hydrochloride (1:3)] (H-[Gly(N-(2R-Ph-propyl))][dF][dL][dK]-{Piperidin1yl(4-NH2,4-COOH)}), the Purity % in series [1] (40° C., 5 days) is recorded as 96.54%; in series [1] (40° C., 10 days) it was 96.42%; in series [1] (40° C., 20 days), 96.41%; in series [1] (60° C., 5 days), 96.42%; in series [1] (60° C., 10 days), 96.43%; in series [1] (60° C., 20 days), 96.41%. The Purity % was 96.50% in series [1] (4500 Lux, 0 day (start value)); 95.57% in series [1] (4500 Lux, 5 days); 94.27% in series [1] (4500 Lux, 10 days); 94.24% in series [1] (4500 Lux, 20 days). In series [1] (lighting, 40° C. and 60° C., 20 days), the “Stability of the salt (conclusion in words)” value is “good stability”.
For `CC(C)C[C@@H](NC(=O)[C@@H](Cc1ccccc1)NC(=O)CNC[C@H](C)c1ccccc1)C(=O)N[C@H](CCCCN)C(=O)N1CCC(N)(C(=O)O)CC1` [Compound A, 4-amino-N—[N^2—[N—[N—[N-((R)-2-phenylpropyl)glycyl]-D-phenylalanyl]-D-leucyl]-D-lysyl]piperidine-4-carboxylic acid] (H-[Gly(N-(2R-Ph-propyl))][dF][dL][dK]-{Piperidin1yl(4-NH2,4-COOH)}), the “Solubility (in words)” value in series [2] was “low solubility”.
